Measured values published in PubChem BioAssay AID328 (DTP/NCI, 2004).
Values joined by “and” are separate entries in the source; they are usually repeats but may differ in a detail not shown here. Equal entries are not always repeated. Toxic doses and inconclusive results are not listed. How the source made its calls: active means survival T/C of 150% or more; inactive means T/C below 125% in these data.

Tested on: BDF1 mice, P388 leukemia ip, median survival T/C
Test: NCI In Vivo Anticancer Drug Screen. Data for tumor model P388 Leukemia (intraperitoneal) in B6D2F1 (BDF1) mice
Details: endpoint: median survival time, higher = longer survival
In short: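 Each value expresses how treatment altered survival: treated-mouse outcome over vehicle-mouse outcome, both groups bearing the transplanted tumour.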

[1] = dose: 50.0 mg/kg/injection, schedule: Q01DX009 (ip), vehicle: Klucel (hydroxypropylcellulose) (HPC)
[2] = dose: 100.0 mg/kg/injection, schedule: Q01DX009 (ip), vehicle: Klucel (hydroxypropylcellulose) (HPC)
[3] = dose: 50.0 mg/kg/injection, schedule: Q04DX003 (ip), vehicle: saline with Tween-80
[4] = dose: 100.0 mg/kg/injection, schedule: Q04DX003 (ip), vehicle: saline with Tween-80
[5] = dose: 200.0 mg/kg/injection, schedule: Q04DX003 (ip), vehicle: saline with Tween-80
[6] = dose: 200.0 mg/kg/injection, schedule: Q04DX003 (ip), vehicle: Klucel (hydroxypropylcellulose) (HPC)
[7] = dose: 50.0 mg/kg/injection, schedule: Q01DX009 (ip), vehicle: saline with Tween-80
[8] = dose: 100.0 mg/kg/injection, schedule: Q01DX009 (ip), vehicle: saline with Tween-80
[9] = dose: 200.0 mg/kg/injection, schedule: Q01DX009 (ip), vehicle: saline with Tween-80

Measured: T/C

C/C(=N/N(C)C)c1ccc([N+](=O)[O-])cc1
inactive: dose: 6.25 mg/kg/injection, schedule: Q01DX009 (ip), vehicle: saline 87 % of control | dose: 12.5 mg/kg/injection, schedule: Q01DX009 (ip), vehicle: saline 91 % of control | dose: 25.0 mg/kg/injection, schedule: Q01DX009 (ip), vehicle: saline 100 % of control | [1] 109 % of control

O=S(=O)(O)c1ccc(Nc2ccccc2)cc1
inactive: [2] 100 % of control | dose: 400.0 mg/kg/injection, schedule: Q01DX009 (ip), vehicle: Klucel (hydroxypropylcellulose) (HPC) 104 % of control

COc1cc2c(c(OC)c1OC)-c1cc3c(cc1[C@@H](O)[C@@H]1COC(=O)[C@@H]21)OCO3
inactive: dose: 6.2 mg/kg/injection, schedule: Q01DX009 (ip), vehicle: saline 90 % of control | dose: 9.3 mg/kg/injection, schedule: Q01DX009 (ip), vehicle: saline 86 % of control | dose: 14.0 mg/kg/injection, schedule: Q01DX009 (ip), vehicle: saline 109 % of control | dose: 21.0 mg/kg/injection, schedule: Q01DX009 (ip), vehicle: saline 100 % of control

CNC1=CC(=O)C1(F)F
inactive: dose: 25.0 mg/kg/injection, schedule: Q01DX001 (ip), vehicle: saline sonified 100 % of control | dose: 50.0 mg/kg/injection, schedule: Q01DX001 (ip), vehicle: saline sonified 109 % of control | dose: 100.0 mg/kg/injection, schedule: Q01DX001 (ip), vehicle: saline sonified 100 % of control

CCOP(=O)(C/C(=N\Nc1ccc([N+](=O)[O-])cc1[N+](=O)[O-])c1ccccc1)c1ccccc1 (centres undefined)
inactive: dose: 25.0 mg/kg/injection, schedule: Q01DX001 (ip), vehicle: saline with Tween-80 100 % of control | dose: 50.0 mg/kg/injection, schedule: Q01DX001 (ip), vehicle: saline with Tween-80 104 % of control | dose: 100.0 mg/kg/injection, schedule: Q01DX001 (ip), vehicle: saline with Tween-80 95 % of control

CCN(CC)CCN1C(=O)CN=C(c2ccccn2)c2cc(Cl)ccc21
inactive: [3] 95 % of control | [4] 100 % of control | [5] 105 % of control

Clc1ccc(N=Cc2ccc(C=Nc3ccc(Cl)c(Cl)c3)cc2)cc1Cl
inactive: dose: 100.0 mg/kg/injection, schedule: Q04DX003 (ip), vehicle: Klucel (hydroxypropylcellulose) (HPC) 100 % of control | [6] 90 % of control | dose: 400.0 mg/kg/injection, schedule: Q04DX003 (ip), vehicle: Klucel (hydroxypropylcellulose) (HPC) 100 % of control

N#Cc1cccc(CC(O)(c2ccccc2)c2ccccc2)c1
inactive: [7] 89 % of control | [8] 87 % of control | [9] 95 % of control

CC1NC(C(=O)O)Cc2cc(O)c(O)cc21 (centres undefined)
inactive: dose: 12.5 mg/kg/injection, schedule: Q01DX009 (ip), vehicle: Klucel (hydroxypropylcellulose) (HPC) 109 % of control | dose: 25.0 mg/kg/injection, schedule: Q01DX009 (ip), vehicle: Klucel (hydroxypropylcellulose) (HPC) 109 % of control | [1] 92 % of control and 99 % of control | [2] 101 % of control

CC(=O)[C@H]1CC[C@H]2[C@@H]3C[C@H](C)C4=CC(=O)CC[C@]4(C)[C@H]3[C@@H](O)C[C@]12C
inactive: [4] 107 % of control | [5] 100 % of control

Cc1n(Cc2ccccc2)c2c([n+]1C)C(=O)c1ccccc1C2=O
inactive: dose: 0.5 mg/kg/injection, schedule: Q01DX010 (ip), vehicle: saline 100 % of control | dose: 1.0 mg/kg/injection, schedule: Q01DX010 (ip), vehicle: saline 109 % of control | dose: 2.0 mg/kg/injection, schedule: Q01DX010 (ip), vehicle: saline 113 % of control | dose: 125.0 micrograms/kg/injection, schedule: Q01DX009 (ip), vehicle: Klucel (hydroxypropylcellulose) (HPC) 105 % of control | dose: 250.0 micrograms/kg/injection, schedule: Q01DX009 (ip), vehicle: Klucel (hydroxypropylcellulose) (HPC) 100 % of control | dose: 500.0 micrograms/kg/injection, schedule: Q01DX009 (ip), vehicle: Klucel (hydroxypropylcellulose) (HPC) 110 % of control | dose: 1000.0 micrograms/kg/injection, schedule: Q01DX009 (ip), vehicle: Klucel (hydroxypropylcellulose) (HPC) 115 % of control | dose: 2000.0 micrograms/kg/injection, schedule: Q01DX009 (ip), vehicle: Klucel (hydroxypropylcellulose) (HPC) 120 % of control

CCCCCCCCCCCCCCC(F)C(=O)OCC1OC(CO)(OC2OC(CO)C(O)C(O)C2O)C(O)C1O (centres undefined)
inactive: dose: 25.0 mg/kg/injection, schedule: Q01DX009 (ip), vehicle: saline with Tween-80 116 % of control | [7] 108 % of control | [3] 108 % of control | [4] 91 % of control

O=C(O)C(c1ccccc1)C1CCCC1 (centres undefined)
inactive: [7] 100 % of control | [8] 95 % of control | [9] 109 % of control

COc1cc2c[n+](C)c3c4cc5c(cc4ccc3c2cc1OC)OCO5
active: dose: 1.0 mg/kg/injection, schedule: Q01DX009 (ip), vehicle: water 150 % of control | dose: 4.0 mg/kg/injection, schedule: Q01DX009 (ip), vehicle: saline 161 % of control | dose: 5.0 mg/kg/injection, schedule: Q01DX009 (ip), vehicle: saline 185 % of control | dose: 6.25 mg/kg/injection, schedule: Q01DX009 (ip), vehicle: water 182 % of control | dose: 8.0 mg/kg/injection, schedule: Q01DX009 (ip), vehicle: saline 176 % of control | dose: 10.0 mg/kg/injection, schedule: Q01DX005 (ip), vehicle: saline 154 % of control | dose: 10.0 mg/kg/injection, schedule: Q01DX009 (ip), vehicle: saline 200 % of control | dose: 10.0 mg/kg/injection, schedule: Q04DX003 (ip), vehicle: saline 185 % of control | dose: 12.0 mg/kg/injection, schedule: Q01DX009 (ip), vehicle: water 177 % of control | dose: 12.5 mg/kg/injection, schedule: Q01DX009 (ip), vehicle: water 204 % of control | dose: 20.0 mg/kg/injection, schedule: Q01DX005 (ip), vehicle: saline 158 % of control | dose: 20.0 mg/kg/injection, schedule: Q04DX003 (ip), vehicle: saline 190 % of control | dose: 28.8 mg/kg/injection, schedule: Q04DX003 (ip), vehicle: Klucel (hydroxypropylcellulose) (HPC) 193 % of control | dose: 40.0 mg/kg/injection, schedule: Q01DX005 (ip), vehicle: saline 183 % of control | dose: 43.2 mg/kg/injection, schedule: Q04DX003 (ip), vehicle: Klucel (hydroxypropylcellulose) (HPC) 196 % of control | dose: 48.0 mg/kg/injection, schedule: Q04DX003 (ip), vehicle: Klucel (hydroxypropylcellulose) (HPC) 200 % of control | dose: 50.0 mg/kg/injection, schedule: Q04DX002 (ip), vehicle: Klucel (hydroxypropylcellulose) (HPC) 225 % of control and 153 % of control | dose: 55.0 mg/kg/injection, schedule: Q04DX003 (ip), vehicle: other 172 % of control | dose: 72.0 mg/kg/injection, schedule: Q04DX003 (ip), vehicle: Klucel (hydroxypropylcellulose) (HPC) 188 % of control | dose: 80.0 mg/kg/injection, schedule: Q01DX009 (ip), vehicle: saline 186 % of control | dose: 80.0 mg/kg/injection, schedule: Q04DX003 (ip), vehicle: Klucel (hydroxypropylcellulose) (HPC) 200 % of control | dose: 80.0 mg/kg/injection, schedule: Q04DX003 (ip), vehicle: saline 260 % of control | dose: 92.0 mg/kg/injection, schedule: Q04DX003 (ip), vehicle: other 162 % of control | dose: 133.3 mg/kg/injection, schedule: Q04DX003 (ip), vehicle: Klucel (hydroxypropylcellulose) (HPC) 170 % of control | [6] 160 % of control
inactive: dose: 25.0 mg/kg/injection, schedule: Q01DX009 (ip), vehicle: water 100 % of control | dose: 80.0 mg/kg/injection, schedule: Q01DX005 (ip), vehicle: saline 103 % of control | dose: 120.0 mg/kg/injection, schedule: Q01DX009 (ip), vehicle: saline 95 % of control
